This assay deals with Mu-type opioid receptor (Homo sapiens, UniProt P35372). Put plainly: Detection of MOR cAMP Agonist Activity: The experiment was performed using a cAMP detection kit from Cisbio (Cisbio #62AM4PEJ).
Mu-type opioid receptor, sequence (P35372 whole entry): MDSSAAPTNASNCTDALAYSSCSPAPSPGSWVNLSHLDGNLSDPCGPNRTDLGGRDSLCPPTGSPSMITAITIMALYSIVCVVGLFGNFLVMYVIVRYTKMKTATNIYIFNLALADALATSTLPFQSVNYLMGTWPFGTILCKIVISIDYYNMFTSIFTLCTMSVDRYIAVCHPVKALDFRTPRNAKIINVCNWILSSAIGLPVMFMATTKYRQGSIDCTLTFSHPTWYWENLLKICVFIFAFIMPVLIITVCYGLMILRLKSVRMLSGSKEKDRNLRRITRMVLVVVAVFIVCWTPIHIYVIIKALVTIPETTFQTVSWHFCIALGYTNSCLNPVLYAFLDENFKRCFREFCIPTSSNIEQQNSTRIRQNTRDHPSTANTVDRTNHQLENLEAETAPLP
In general, EC50 refers to the concentration giving half of the maximal effect. With `c1ccc([C@]2(CCNCc3scc4c3CCC4)CCO[C@]3(CCOC3)C2)nc1`, the EC50 amounted to 0.47 nM. The molecule `Fc1ccc([C@]2(CCNCc3scc4c3CCC4)CCO[C@]3(CCOC3)C2)nc1` displayed an EC50 of 0.1 nM. Turning to `c1ccc([C@]2(CCN[C@H]3CCc4ccccc43)CCO[C@]3(CCOC3)C2)nc1`, it took 4 nM to reach a half-maximal effect (EC50). In the case of `Cc1cccc(CNCC[C@@]2(c3ccc(F)cn3)CCO[C@]3(CCOC3)C2)c1` it was 0.1 nM. In the case of `c1ccc([C@]2(CCNCc3cc4c(s3)CCC4)CCOC3(CCCC3)C2)nc1` it was 0.9 nM.
